Drawing on patent publication US6982348B2, “Aminoethanol derivatives” (Takeda Pharmaceutical Company Limited, priority 2001, dated 2006), this text covers melting point for 27 compounds.

The melting point is the temperature, or range, at which the solid turns liquid.

`CN(C(=O)c1cccc2ccccc12)[C@H](Cc1ccc(C(F)(F)F)cc1)[C@@H](O)c1ccc(F)cc1` (racemic) [Example 121, N-((1RS,2SR)-2-(4-fluorophenyl)-2-hydroxy-1-((4-(trifluoromethyl)phenyl)methyl)ethyl)-N-methyl-1-naphthalenecarboxamide] came in with a melting point of 196 to 197 °C.
In turn, `O=C(CCCc1cccs1)N[C@H](Cc1ccc(C(F)(F)F)cc1)[C@@H](O)c1cccc2ccccc12` (racemic) [Example 191, N-((1RS,2SR)-2-hydroxy-2-(1-naphthalenyl)-1-((4-(trifluoromethyl)phenyl)methyl)ethyl)-4-(2-thienyl)butyramide] gave a melting point of 139 to 140 °C.
The compound `O=C(N[C@H](Cc1ccc(CC(F)(F)C(F)(F)F)cc1)[C@@H](O)c1cccc(Cl)c1)c1cccc2c(Cl)cccc12` (racemic) [Example 375, 5-chloro-N-{(1RS,2SR)-2-(3-chlorophenyl)-2-hydroxy-1-[4-(2,2,3,3,3-pentafluoropropyl)benzyl]ethyl}-1-naphthamide] returned a melting point of 216 to 217 °C.
The figure for `O=C(N[C@H](Cc1cccc(OC(F)(F)C(F)F)c1)[C@@H](O)c1ccc(O)cc1)c1cccc2c1C=CCCC2` (racemic) [Example 241, N-{(1RS,2SR)-2-hydroxy-2-(4-hydroxyphenyl)-1-[3-(1,1,2,2-tetrafluoroethoxy)benzyl]ethyl}-6,7-dihydro-5H-benzo[a][7]annulene-1-carboxamide] is 167 to 168 °C.
Compound `CC(=CC(=O)N[C@H](Cc1ccc(C(F)(F)F)cc1)[C@@H](O)c1ccc(F)cc1)C(F)(F)F` (racemic) [Example 49, 4,4,4-trifluoro-N-[(1RS,2SR)-2-(4-fluorophenyl)-2-hydroxy-1-[4-(trifluoromethyl)benzyl]ethyl]-3-methyl-2-butenamide] had a melting point of 182 to 183 °C.
`CC(C)(C)COc1cccc(C[C@@H](NC(=O)c2cccc3c2C=CCCC3)[C@@H](O)c2cccc(Cl)c2)c1` (racemic) [Example 368, N-[(1RS,2SR)-1-[3-(neopentyloxy)benzyl]-2-(3-chlorophenyl)-2-hydroxyethyl]-6,7-dihydro-5H-benzo[a]cycloheptene-1-carboxamide] registered a melting point of 128 to 129 °C.
`O=C(N[C@H](Cc1cccc(OC(F)(F)C(F)F)c1)[C@@H](O)c1ccc(Oc2ccccn2)cc1)c1cccc2c1C=CCCC2` (racemic) [Example 258, N-{(1RS,2SR)-2-hydroxy-2-[4-(pyridin-2-yloxy)phenyl]-1-[3-(1,1,2,2-tetrafluoroethoxy)benzyl]ethyl}-6,7-dihydro-5H-benzo[a][7]annulene-1-carboxamide] came in with a melting point of 160 to 161 °C.
On to `O=C(N[C@H](Cc1cccc(OC(F)(F)C(F)F)c1)[C@@H](O)c1ccc(Cl)s1)c1cccc2c1C=CCCC2` (racemic) [Example 289, N-[(1RS,2RS)-2-(5-chloro-2-thienyl)-2-hydroxy-1-[3-(1,1,2,2-tetrafluoroethoxy)benzyl]ethyl]-6,7-dihydro-5H-benzo[a]cycloheptene-1-carboxamide], for which the melting point lay in the range of 177 to 178 °C.
The figure for `COC(=O)c1ccc(COc2ccc([C@@H](O)[C@H](Cc3cccc(OC(F)(F)C(F)F)c3)NC(=O)c3cccc4c3C=CCCC4)cc2)cc1` (racemic) [Example 248, methyl 4-[(4-{(1RS,2SR)-2-[(6,7-dihydro-5H-benzo[a][7]annulen-1-ylcarbonyl)amino]-1-hydroxy-3-[3-(1,1,2,2-tetrafluoroethoxy)phenyl]propyl}phenoxy)methyl]benzoate] is 169 to 170 °C.
Regarding `COc1cccc([C@H](O)[C@@H](Cc2cccc(OC(F)(F)C(F)F)c2)NC(=O)c2cccc3c2C=CCCC3)c1` (racemic) [Example 253, N-{(1RS,2SR)-2-hydroxy-2-(3-methoxyphenyl)-1-[3-(1,1,2,2-tetrafluoroethoxy)benzyl]ethyl}-6,7-dihydro-5H-benzo[a][7]annulene-1-carboxamide], the melting point fell in the range of 155 to 156 °C.
Turning to `O=C(N[C@H](Cc1cccc(OC(F)(F)C(F)F)c1)[C@@H](O)c1ccc(CN2CCCCC2)cc1)c1cccc2c1C=CCCC2` (racemic) [Example 327, N-[(1RS,2SR)-2-hydroxy-2-[4-(piperidinomethyl)phenyl]-1-[3-(1,1,2,2-tetrafluoroethoxy)benzyl]ethyl]-6,7-dihydro-5H-benzo[a]cycloheptene-1-carboxamide], the melting point was in the range of 104 to 106 °C.
`O=C(CCc1ccccc1)N[C@H](Cc1ccc(C(F)(F)F)cc1)[C@@H](O)c1ccc(F)cc1F` (racemic) [Example 182, N-((1RS,2SR)-2-(2,4-difluorophenyl)-2-hydroxy-1-((4-(trifluoromethyl)phenyl)methyl)ethyl)-3-phenylpropanamide] registered a melting point of 126 to 127 °C.
Turning to `O=C(N[C@H](Cc1ccc(C(F)(F)F)cc1)[C@@H](O)c1ccc(F)cc1)c1ccnc2ccccc12` (racemic) [Example 57, N-((1RS,2SR)-2-(4-fluorophenyl)-2-hydroxy-1-((4-(trifluoromethyl)phenyl)methyl)ethyl)-4-quinolinecarboxamide], the melting point was 227 to 228 °C.
The result for `CC(F)(F)c1cccc(C[C@@H](NC(=O)c2cccc3c2C=CCCC3)[C@@H](O)c2ccc(F)cc2)c1` (racemic) [Example 360, N-[(1RS,2SR)-1-[3-(1,1-difluoroethyl)benzyl]-2-(4-fluorophenyl)-2-hydroxyethyl]-6,7-dihydro-5H-benzo[a]cycloheptene-1-carboxamide] reads 170 to 171 °C; that for `O=C(N[C@H](Cc1ccc(C(F)(F)F)cc1)[C@@H](O)c1ccc(F)cc1)c1ccc([C@@H]2O[C@@H]2c2ccc(Cl)cc2)cc1` (racemic) [Example 93, 4-[cis-3-(4-chlorophenyl)oxiran-2-yl]-N-[(1RS,2SR)-2-(4-fluorophenyl)-2-hydroxy-1-[4-(trifluoromethyl)benzyl]ethyl]benzenecarboxamide], 162 to 166 °C.
For `COc1ccc(C[C@@H](NC(=O)C2CCCCC2)[C@@H](O)c2ccc(F)cc2)cc1` (racemic) [Example 150, N-((1RS,2SR)-2-(4-fluorophenyl)-2-hydroxy-1-((4-(methyloxy)phenyl)methyl)ethyl)cyclohexanecarboxamide], the melting point lay within 193 to 194 °C.
On to `O=C(NC(Cc1ccc(C(F)(F)F)cc1)C(O)c1ccc(F)cc1)C12CC3CC(CC(C3)C1)C2` (racemic) [Example 15, N-[2-(4-fluorophenyl)-2-hydroxy-1-[[4-(trifluoromethyl)phenyl]methyl]ethyl]adamantane-1-carboxamide], for which the melting point was 169 to 170 °C.
The figure for `CC(C)C(F)(F)Cc1ccc(C[C@@H](NC(=O)c2cccc3c(Cl)cccc23)[C@@H](O)c2cccc(Cl)c2)cc1` (racemic) [Example 354, 5-chloro-N-[(1RS,2SR)-2-(3-chlorophenyl)-1-[4-(2,2-difluoro-3-methylbutyl)benzyl]-2-hydroxyethyl]naphthalene-1-carboxamide] is 170 to 171 °C; for `CC(C)(C)Oc1ccc(C[C@@H](NC(=O)c2cccc3c(Cl)cccc23)[C@@H](O)c2cccc(Cl)c2)cc1` (racemic) [Example 278, N-[(1RS,2SR)-1-(4-tert-butoxybenzyl)-2-(3-chlorophenyl)-2-hydroxyethyl]-5-chloro-1-naphthamide] it is 132 to 133 °C.
Compound `CC(C)C(F)(F)Cc1ccc(C[C@@H](NC(=O)c2ccc(F)c3ccccc23)[C@@H](O)c2cccc(Cl)c2)cc1` (racemic) [Example 353, N-[(1RS,2SR)-2-(3-chlorophenyl)-1-[4-(2,2-difluoro-3-methylbutyl)benzyl]-2-hydroxyethyl]-4-fluoronaphthalene-1-carboxamide] came in with a melting point of 181 to 182 °C.
Compound `CC(C)(C)c1ccc(C[C@@H](NC(=O)c2cccc3c(F)cccc23)[C@@H](O)c2cccc(Cl)c2)cc1` (racemic) [Example 275, N-[(1RS,2SR)-1-(4-tert-butylbenzyl)-2-(3-chlorophenyl)-2-hydroxyethyl]-5-fluoro-1-naphthamide] registered a melting point of 102 to 103 °C.
Consider `COc1ccc([C@H](O)[C@@H](Cc2ccc(C(F)(F)F)cc2)NC(=O)c2ccc(F)c3ccccc23)cc1` (racemic) [Example 192, 4-fluoro-N-((1RS,2SR)-2-hydroxy-2-(4-methoxyphenyl)-1-((4-(trifluoromethyl)phenyl)methyl)ethyl)-1-naphthalenecarboxamide], for which the melting point lay in the range of 184 to 185 °C.
As for `O=C(CC1CCCC1)N[C@H](Cc1ccc(C(F)(F)F)cc1)[C@@H](O)c1ccc(F)cc1` (racemic) [Example 44, 2-cyclopentyl-N-[(1RS,2SR)-2-(4-fluorophenyl)-2-hydroxy-1-[4-(trifluoromethyl)benzyl]ethyl]acetamide], the melting point lay within 195 to 196 °C.
For the compound `CC(C)(C)C(Cc1ccccc1)C(=O)N[C@H](Cc1ccc(C(F)(F)F)cc1)[C@@H](O)c1ccc(F)cc1` (mixture of isomers) [Example 112, 2-benzyl-N-[(1RS,2SR)-2-(4-fluorophenyl)-2-hydroxy-1-[4-(trifluoromethyl)benzyl]ethyl]-3,3-dimethylbutyramide], the melting point was in the range of 175 to 176 °C.
`O=C(N[C@H](Cc1ccc(C(F)(F)F)cc1)[C@@H](O)c1cccc(Oc2ccccc2)c1)c1ccc(F)c2ccccc12` (racemic) [Example 207, N-((1RS,2SR)-2-hydroxy-2-(3-phenoxyphenyl)-1-((4-(trifluoromethyl)phenyl)methyl)ethyl)-4-fluoro-1-naphthalenecarboxamide]: the melting point fell in the range of 184 to 185 °C.
In the case of `O=C(N[C@H](Cc1ccc(C(F)(F)F)cc1)[C@@H](O)c1ccc(F)cc1)c1cccc(Oc2ccccc2)c1` (racemic) [Example 107, N-((1RS,2SR)-2-(4-fluorophenyl)-2-hydroxy-1-((4-(trifluoromethyl)phenyl)methyl)ethyl)-3-phenoxybenzamide], the melting point was in the range of 144 to 145 °C.
The compound `O=C(Nc1ccccc1)c1ccc([C@H](O)[C@@H](Cc2cccc(OC(F)(F)C(F)F)c2)NC(=O)c2cccc3c2C=CCCC3)cc1` (racemic) [Example 314, N-[(1RS,2SR)-2-[4-(anilinocarbonyl)phenyl]-2-hydroxy-1-[3-(1,1,2,2-tetrafluoroethoxy)benzyl]ethyl]-6,7-dihydro-5H-benzo[a]cycloheptene-1-carboxamide] displayed a melting point of 205 to 206 °C.
